Assay results reported in ChEMBL document CHEMBL5647692, “The novel dual PI3K/mTOR inhibitor NVP-BGT226 displays cytotoxic activity in both normoxic and hypoxic hepatocarcinoma cells” (Oncotarget, 2015).
Active and inactive are the calls of the source. The rule behind the calls is not given here. Peptide text beside a SMILES is read from it. * marks the point of attachment. Cbz = O=C(OCc1ccccc1)*; CH2F = FC*

Assays:
[1] = test system: Hep 3B2; assay: Cytotoxicity against human Hep3B cells assessed as reduction in cell viability at 10 uM incubated for 24 hrs by MTT assay; format: functional, cell-based
[2] = test system: HepG2; assay: Cytotoxicity against human HepG2 cells assessed as reduction in cell viability at 10 uM incubated for 24 hrs by MTT assay; format: functional, cell-based
[3] = test system: Mahlavu; assay: Cytotoxicity against human Mahlavu cells assessed as reduction in cell growth at 10 uM incubated for 24 hrs under hypoxia condition by MTT assay; format: functional, cell-based
[4] = test system: Hep 3B2; assay: Cytotoxicity against human Hep3B cells assessed as reduction in cell growth at 10 uM incubated for 24 hrs under hypoxia condition by MTT assay; format: functional, cell-based
[5] = test system: SNU-475; assay: Induction of autophagy in human SNU-475 cells assessed as reduction in cytotoxicity at 10 to 25 uM incubated for 24 hrs by MTT assay; format: functional, cell-based; conditions: dose 10-25 µM
[6] = test system: Mahlavu; assay: Induction of autophagy in human Mahlavu cells assessed as reduction in cytotoxicity at 10 to 25 uM incubated for 24 hrs by MTT assay; format: functional, cell-based; conditions: dose 10-25 µM
[7] = test system: Mahlavu; assay: Cytotoxicity against human Mahlavu cells assessed as reduction in cell viability at 10 uM incubated for 24 hrs under normoxia condition by MTT assay; format: functional, cell-based
[8] = test system: SNU-475; assay: Cytotoxicity against human SNU-475 cells assessed as reduction in cell viability at 10 uM incubated for 24 hrs under hypoxia condition by MTT assay; format: functional, cell-based
[9] = test system: Mahlavu; assay: Cytotoxicity against human Mahlavu cells assessed as reduction in cell viability at 25 uM incubated for 24 hrs under hypoxia condition by MTT assay; format: functional, cell-based
[10] = test system: SNU-475; assay: Cytotoxicity against human SNU-475 cells assessed as reduction in cell viability at 25 uM incubated for 24 hrs under hypoxia condition by MTT assay; format: functional, cell-based
[11] = test system: Mahlavu; assay: Cytotoxicity against human Mahlavu cells assessed as reduction in cell viability at 10 uM incubated for 24 hrs in presence of BGT226 under hypoxia condition by MTT assay; format: functional, cell-based
[12] = test system: SNU-475; assay: Cytotoxicity against human SNU-475 cells assessed as reduction in cell viability at 10 uM incubated for 24 hrs in presence of BGT226 under hypoxia condition by MTT assay; format: functional, cell-based
[13] = test system: Mahlavu; assay: Cytotoxicity against human Mahlavu cells assessed as reduction in cell viability at 25 uM incubated for 24 hrs in presence of BGT226 under hypoxia condition by MTT assay; format: functional, cell-based
[14] = test system: SNU-475; assay: Cytotoxicity against human SNU-475 cells assessed as reduction in cell viability at 25 uM incubated for 24 hrs in presence of BGT226 under hypoxia condition by MTT assay; format: functional, cell-based
[15] = test system: Mahlavu; assay: Induction of apoptosis in human Mahlavu cells assessed as viable cells at 75 uM incubated for 24 hrs by Annexin-V/7-AAD staining based muse cell analyzer method (reference value: 90.52 %); format: functional; conditions: read-out: Activity
[16] = test system: Mahlavu; assay: Induction of apoptosis in human Mahlavu cells assessed as early apoptotic cells at 75 uM incubated for 24 hrs by Annexin-V/7-AAD staining based muse cell analyzer method (reference value: 6.57 %); format: functional
[17] = test system: Mahlavu; assay: Induction of apoptosis in human Mahlavu cells assessed as late apoptotic cells at 75 uM incubated for 24 hrs by Annexin-V/7-AAD staining based muse cell analyzer method (reference value: 2.24 %); format: functional
[18] = test system: Mahlavu; assay: Induction of apoptosis in human Mahlavu cells assessed as necrotic cells at 75 uM incubated for 24 hrs by Annexin-V/7-AAD staining based muse cell analyzer method (reference value: 0.67 %); format: functional
[19] = test system: SNU-449; assay: Induction of apoptosis in human SNU-449 cells assessed as viable cells at 75 uM incubated for 24 hrs by Annexin-V/7-AAD staining based muse cell analyzer method (reference value: 90.07 %); format: functional; conditions: read-out: Activity
[20] = test system: SNU-449; assay: Induction of apoptosis in human SNU-449 cells assessed as early apoptotic cells at 75 uM incubated for 24 hrs by Annexin-V/7-AAD staining based muse cell analyzer method (reference value: 3.95 %); format: functional
[21] = test system: SNU-449; assay: Induction of apoptosis in human SNU-449 cells assessed as late apoptotic cells at 75 uM incubated for 24 hrs by Annexin-V/7-AAD staining based muse cell analyzer method (reference value: 5.03 %); format: functional
[22] = test system: SNU-449; assay: Induction of apoptosis in human SNU-449 cells assessed as necrotic cells at 75 uM incubated for 24 hrs by Annexin-V/7-AAD staining based muse cell analyzer method (reference value: 0.95 %); format: functional

## Cn1cnc(N)c2ncnc1-2
[1]
  Activity: inactive
[2]
  Activity: inactive
[3]
  Activity: inactive
[4]
  Activity: inactive

## CCN(CC)CCCC(C)Nc1ccnc2cc(Cl)ccc12 (configuration not stated)
[5]
  Activity: Active
[6]
  Activity: Active
[7]
  Activity: Active
[8]
  Activity: Active
[9]
  Activity: Active
[10]
  Activity: Active
[11]
  Activity: Active
[12]
  Activity: Active
[13]
  Activity: Active
[14]
  Activity: Active

## COC(=O)C[C@H](NC(=O)[C@H](C)NC(=O)[C@@H](NC(=O)OCc1ccccc1)C(C)C)C(=O)CF (Cbz-Val-Ala-Asp(OMe)-CH2F)
[15]
  viability at 75 µM: 89.7%
[16]
  Activity: 5%
[17]
  Activity: 3.78%
[18]
  Activity: 1.52%
[19]
  viability at 75 µM: 89.5%
[20]
  Activity: 4.6%
[21]
  Activity: 5.35%
[22]
  Activity: 0.53%
